Laboratory results as given in PubChem BioAssay AID250 (DTP/NCI, 2004).
Where “and” joins values, the source holds several entries; their conditions need not be identical. Equal values may be shown once. Toxic doses and inconclusive results are not listed.

Test system: BDF1 mice, L1210 leukemia sc, survival T/C
Assay: NCI In Vivo Anticancer Drug Screen. Data for tumor model L1210 Leukemia (subcutaneous) in B6D2F1 (BDF1) mice
Settings: higher = longer survival
Protocol: The antitumor activity of compounds was measured in mice bearing transplantable tumors. Survival or tumor size were measured and the results are expressed as the measurement made in the treated group (T) divided by the measurement made in the vehicle treated control group (C). The tumor model used in this assay is L1210 Leukemia (subcutaneous) in B6D2F1 (BDF1) mice

[1] = endpoint: median survival time, dose: 3.0 mg/kg/injection, schedule: Q01DX Z (sc), vehicle: saline
[2] = endpoint: median survival time, dose: 8.4 mg/kg/injection, schedule: Q01DX Z (sc), vehicle: saline

## O=c1[nH]cc(F)c(=O)[nH]1
endpoint: mean survival time, dose: 65.0 mg/kg/injection, schedule: Q07DX009 (sc), vehicle: saline
  T/C: 112 % of control
endpoint: mean survival time, dose: 108.0 mg/kg/injection, schedule: Q07DX009 (sc), vehicle: saline
  T/C: 99 % of control
endpoint: mean survival time, dose: 180.0 mg/kg/injection, schedule: Q07DX009 (sc), vehicle: saline
  T/C: 113 % of control
endpoint: mean survival time, dose: 300.0 mg/kg/injection, schedule: Q07DX009 (sc), vehicle: saline
  T/C: 162 % of control
endpoint: median survival time, dose: 2.5 mg/kg/injection, schedule: Q01DX009 (ip), vehicle: saline
  T/C: 93 % of control and 100 % of control
[1]
  T/C: 104 % of control
endpoint: median survival time, dose: 3.02 mg/kg/injection, schedule: Q01DX Z (sc), vehicle: saline
  T/C: 100 % of control
endpoint: median survival time, dose: 4.0 mg/kg/injection, schedule: Q01DX Z (sc), vehicle: saline
  T/C: 105 % of control
endpoint: median survival time, dose: 5.0 mg/kg/injection, schedule: Q01DX009 (ip), vehicle: saline
  T/C: 94 % of control and 100 % of control and 102 % of control
endpoint: median survival time, dose: 5.0 mg/kg/injection, schedule: Q01DX009 (sc), vehicle: saline
  T/C: 103 % of control
endpoint: median survival time, dose: 5.0 mg/kg/injection, schedule: Q01DX Z (sc), vehicle: saline
  T/C: 108 % of control
endpoint: median survival time, dose: 5.04 mg/kg/injection, schedule: Q01DX Z (sc), vehicle: saline
  T/C: 100 % of control
endpoint: median survival time, dose: 8.4 mg/kg/injection, schedule: Q01DX009 (ip), vehicle: saline
  T/C: 110 % of control
endpoint: median survival time, dose: 8.4 mg/kg/injection, schedule: Q01DX009 (sc), vehicle: saline
  T/C: 114 % of control
endpoint: median survival time, dose: 8.4 mg/kg/injection, schedule: Q01DX013 (sc), vehicle: saline
  T/C: 111 % of control
[2]
  T/C: 105 % of control and 108 % of control and 116 % of control
endpoint: median survival time, dose: 10.0 mg/kg/injection, schedule: Q01DX009 (ip), vehicle: saline
  T/C: 103 % of control and 109 % of control
endpoint: median survival time, dose: 14.0 mg/kg/injection, schedule: Q01DX009 (ip), vehicle: saline
  T/C: 121 % of control
endpoint: median survival time, dose: 14.0 mg/kg/injection, schedule: Q01DX013 (sc), vehicle: saline
  T/C: 150 % of control
endpoint: median survival time, dose: 14.0 mg/kg/injection, schedule: Q04DX003 (ip), vehicle: saline
  T/C: 100 % of control
endpoint: median survival time, dose: 14.0 mg/kg/injection, schedule: Q04DX003 (sc), vehicle: saline
  T/C: 103 % of control
endpoint: median survival time, dose: 16.0 mg/kg/injection, schedule: Q01DX Z (sc), vehicle: saline
  T/C: 122 % of control
endpoint: median survival time, dose: 23.0 mg/kg/injection, schedule: Q01DX009 (sc), vehicle: saline
  T/C: 154 % of control
endpoint: median survival time, dose: 23.0 mg/kg/injection, schedule: Q01DX013 (sc), vehicle: saline
  T/C: 161 % of control and 163 % of control
endpoint: median survival time, dose: 23.0 mg/kg/injection, schedule: Q04DX003 (ip), vehicle: saline
  T/C: 107 % of control
endpoint: median survival time, dose: 23.0 mg/kg/injection, schedule: Q04DX003 (sc), vehicle: saline
  T/C: 102 % of control
endpoint: median survival time, dose: 23.3 mg/kg/injection, schedule: Q01DX Z (sc), vehicle: saline
  T/C: 108 % of control
endpoint: median survival time, dose: 38.9 mg/kg/injection, schedule: Q01DX Z (sc), vehicle: saline
  T/C: 100 % of control
endpoint: median survival time, dose: 39.0 mg/kg/injection, schedule: Q01DX009 (ip), vehicle: saline
  T/C: 109 % of control
endpoint: median survival time, dose: 39.0 mg/kg/injection, schedule: Q01DX009 (sc), vehicle: saline
  T/C: 121 % of control
endpoint: median survival time, dose: 39.0 mg/kg/injection, schedule: Q01DX013 (sc), vehicle: saline
  T/C: 166 % of control and 167 % of control
endpoint: median survival time, dose: 39.0 mg/kg/injection, schedule: Q01DX Z (sc), vehicle: saline
  T/C: 163 % of control and 175 % of control
endpoint: median survival time, dose: 64.0 mg/kg/injection, schedule: Q01DX Z (sc), vehicle: saline
  T/C: 161 % of control
endpoint: median survival time, dose: 65.0 mg/kg/injection, schedule: Q01DX009 (ip), vehicle: saline
  T/C: 101 % of control
endpoint: median survival time, dose: 65.0 mg/kg/injection, schedule: Q01DX009 (sc), vehicle: saline
  T/C: 107 % of control
endpoint: median survival time, dose: 65.0 mg/kg/injection, schedule: Q04DX003 (sc), vehicle: saline
  T/C: 151 % of control
endpoint: median survival time, dose: 65.0 mg/kg/injection, schedule: Q07DX009 (sc), vehicle: saline
  T/C: 114 % of control
endpoint: median survival time, dose: 65.0 mg/kg/injection, schedule: Q07DX Z (sc), vehicle: saline
  T/C: 115 % of control
endpoint: median survival time, dose: 108.0 mg/kg/injection, schedule: Q01DX Z (sc), vehicle: saline
  T/C: 91 % of control
endpoint: median survival time, dose: 108.0 mg/kg/injection, schedule: Q04DX003 (ip), vehicle: saline
  T/C: 173 % of control
endpoint: median survival time, dose: 108.0 mg/kg/injection, schedule: Q04DX003 (sc), vehicle: saline
  T/C: 187 % of control
endpoint: median survival time, dose: 108.0 mg/kg/injection, schedule: Q07DX009 (sc), vehicle: saline
  T/C: 102 % of control
endpoint: median survival time, dose: 108.0 mg/kg/injection, schedule: Q07DX Z (sc), vehicle: saline
  T/C: 105 % of control
endpoint: median survival time, dose: 128.0 mg/kg/injection, schedule: Q01DX Z (sc), vehicle: saline
  T/C: 155 % of control
endpoint: median survival time, dose: 180.0 mg/kg/injection, schedule: Q01DX Z (sc), vehicle: saline
  T/C: 120 % of control
endpoint: median survival time, dose: 180.0 mg/kg/injection, schedule: Q04DX003 (ip), vehicle: saline
  T/C: 121 % of control
endpoint: median survival time, dose: 180.0 mg/kg/injection, schedule: Q04DX003 (sc), vehicle: saline
  T/C: 184 % of control
endpoint: median survival time, dose: 180.0 mg/kg/injection, schedule: Q07DX009 (sc), vehicle: saline
  T/C: 114 % of control
endpoint: median survival time, dose: 180.0 mg/kg/injection, schedule: Q07DX Z (sc), vehicle: saline
  T/C: 115 % of control
endpoint: median survival time, dose: 300.0 mg/kg/injection, schedule: Q07DX009 (sc), vehicle: saline
  T/C: 169 % of control
endpoint: median survival time, dose: 300.0 mg/kg/injection, schedule: Q07DX Z (sc), vehicle: saline
  T/C: 168 % of control

## CCCC(=O)NC1=C(N2CC2)C(=O)C(NC(=O)CCC)=C(N2CC2)C1=O
endpoint: median survival time, dose: 1.8 mg/kg/injection, schedule: Q01DX Z (sc), vehicle: saline
  T/C: 100 % of control
[1]
  T/C: 111 % of control
[2]
  T/C: 183 % of control
endpoint: median survival time, dose: 14.0 mg/kg/injection, schedule: Q01DX Z (sc), vehicle: saline
  T/C: 150 % of control
endpoint: median survival time, dose: 23.0 mg/kg/injection, schedule: Q01DX Z (sc), vehicle: saline
  T/C: 122 % of control

## Nc1ccn(C2OC(COP(=O)(O)O)C(O)C2O)c(=O)n1 (centres undefined)
endpoint: median survival time, dose: 3.5 mg/kg/injection, schedule: Q01DX Z (sc), vehicle: other
  T/C: 200 % of control
endpoint: median survival time, dose: 5.8 mg/kg/injection, schedule: Q01DX Z (sc), vehicle: other
  T/C: 244 % of control
endpoint: median survival time, dose: 9.7 mg/kg/injection, schedule: Q01DX Z (sc), vehicle: other
  T/C: 272 % of control
endpoint: median survival time, dose: 16.2 mg/kg/injection, schedule: Q01DX Z (sc), vehicle: other
  T/C: 300 % of control
endpoint: median survival time, dose: 27.0 mg/kg/injection, schedule: Q01DX Z (sc), vehicle: other
  T/C: 350 % of control
endpoint: median survival time, dose: 45.1 mg/kg/injection, schedule: Q01DX Z (sc), vehicle: other
  T/C: 305 % of control
endpoint: median survival time, dose: 75.1 mg/kg/injection, schedule: Q01DX Z (sc), vehicle: other
  T/C: 205 % of control

## O=NN(CCCl)C(=O)N[C@H]1CCCC[C@@H]1Cl
endpoint: median survival time, dose: 3.0 mg/kg/injection, schedule: Q01DX Z (sc), vehicle: carboxymethylcellulose (CMC)
  T/C: 111 % of control
endpoint: median survival time, dose: 5.0 mg/kg/injection, schedule: Q01DX Z (sc), vehicle: carboxymethylcellulose (CMC)
  T/C: 111 % of control
endpoint: median survival time, dose: 8.4 mg/kg/injection, schedule: Q01DX Z (sc), vehicle: carboxymethylcellulose (CMC)
  T/C: 211 % of control
endpoint: median survival time, dose: 11.3 mg/kg/injection, schedule: Q01DX Z (sc), vehicle: carboxymethylcellulose (CMC)
  T/C: 668 % of control
endpoint: median survival time, dose: 14.0 mg/kg/injection, schedule: Q01DX Z (sc), vehicle: carboxymethylcellulose (CMC)
  T/C: 336 % of control and 472 % of control
endpoint: median survival time, dose: 22.5 mg/kg/injection, schedule: Q01DX Z (sc), vehicle: carboxymethylcellulose (CMC)
  T/C: 493 % of control
endpoint: median survival time, dose: 23.0 mg/kg/injection, schedule: Q01DX Z (oral), vehicle: carboxymethylcellulose (CMC)
  T/C: 326 % of control
endpoint: median survival time, dose: 23.0 mg/kg/injection, schedule: Q01DX Z (sc), vehicle: carboxymethylcellulose (CMC)
  T/C: 272 % of control and 336 % of control
endpoint: median survival time, dose: 39.0 mg/kg/injection, schedule: Q01DX Z (oral), vehicle: carboxymethylcellulose (CMC)
  T/C: 189 % of control
endpoint: median survival time, dose: 39.0 mg/kg/injection, schedule: Q01DX Z (sc), vehicle: carboxymethylcellulose (CMC)
  T/C: 278 % of control
endpoint: median survival time, dose: 45.0 mg/kg/injection, schedule: Q01DX Z (sc), vehicle: carboxymethylcellulose (CMC)
  T/C: 300 % of control
endpoint: median survival time, dose: 65.0 mg/kg/injection, schedule: Q01DX Z (oral), vehicle: carboxymethylcellulose (CMC)
  T/C: 163 % of control
endpoint: median survival time, dose: 65.0 mg/kg/injection, schedule: Q01DX Z (sc), vehicle: carboxymethylcellulose (CMC)
  T/C: 194 % of control
endpoint: median survival time, dose: 90.0 mg/kg/injection, schedule: Q01DX Z (sc), vehicle: carboxymethylcellulose (CMC)
  T/C: 150 % of control
endpoint: median survival time, dose: 180.0 mg/kg/injection, schedule: Q01DX Z (oral), vehicle: carboxymethylcellulose (CMC)
  T/C: 115 % of control
endpoint: median survival time, dose: 300.0 mg/kg/injection, schedule: Q01DX Z (oral), vehicle: carboxymethylcellulose (CMC)
  T/C: 105 % of control
